Patent US20040058309A1, “Plasma supplement and use in liver assist systems” (priority 2003, published 2004)
Entries after “also recorded” stand apart in the source; their conditions may differ. Read-outs that look alike come from different tables or passages of the source.

Tests used:
Rat hepatocytes [1] = test: Albumin synthesis rate of rat hepatocytes (collagen sandwich) exposed to supplemented citrated human plasma; type: cell-based; conditions: for Albumin synthesis (in words) vs plasma with BME amino acid supplementation: 10 mM as only amino acid supplementation of citrated plasma
Description: (§1) Type I collagen was prepared from Lewis rat tail tendons as previously described in Dunn et al. (supra). […] Six-well culture plates were coated with 0.5 ml of collagen gelling solution and the coated plates were incubated at 37° C. for 1 hour to allow for gelation. The hepatocytes were suspended in culture medium and seeded at a density of 1.0×10^6 cell per well. The standard hepatocyte culture medium consisted of DMEM supplemented with 10% FBS, 0.5 U/ml insulin, 14 ng/ml glucagon, 20 ng/ml EGF, 7.5 μg/ml hydrocortisone, 200 U/ml penicillin, and 200 μg/ml streptomycin. After incubating at 37° C. in a humidified gas mixture of 90% air/10% CO2 for 24 hours, the culture medium was removed and the cells were overlaid with a second 0.5 ml layer of collagen gelling solution to form the collagen sandwich. After gelling for 45 minutes at 37° C., 1 ml of fresh medium was added. Fresh medium (1 ml) was supplied to the cultures daily after removal of the previous day's medium. The hepatocytes were cultured for 6 days in standard culture medium prior to plasma exposure.
(§2) Expired plasma from a blood bank was pooled, aliquoted, and kept frozen until used for experiments. Plasma supplements were prepared in concentrated form and added individually to plasma as described in the following examples.
(§3) In each set of experiments, components of the supplementation to be included or excluded were designated according to the result from prior experiments. On the 7th day after isolation, the culture medium was removed and hepatocytes were fed with 1 ml of plasma. Cells were fed with fresh plasma daily thereafter. Control cultures were maintained in hepatocyte culture medium throughout. For the hormone study only, the 6-day-old collagen double-gel cultures were washed 10 times with unsupplemented DMEM to remove residual hormones in the collagen gel, and twice with medium or plasma identical to the following experimental condition.
(§4) Culture supernatants were collected daily after a 24 hour culture period. […] A standard curve was derived using background culture medium prepared by incubation with an empty collagen gel for the same period as the cell culture, and chromatographically purified rat albumin (Cappel Laboratories). Urea concentration in standard culture medium and in plasma was measured by the specific reaction of diacetyl monoxime with urea (Blood Urea Nitrogen Assay Kit, Sigma Diagnostics).
(§5) Rates of secretion were normalized to the number of cells initially seeded. […] The statistical significance of observed differences was determined by two-way analysis of variance and post hoc Tukey's test. An alpha value of 5% was considered significant.

Rat hepatocytes [2] = test: Urea synthesis rate of rat hepatocytes (collagen sandwich) exposed to supplemented citrated human plasma; type: cell-based
Description: as §1, §2, §3, §4, §5

[3] = citrated human plasma + 5× medium concentrate, day 5 of plasma exposure, vs fully supplemented plasma

Row | Compound | Effect on albumin synthesis of removing (or reducing) the component in the plasma supplementation (Rat hepatocytes [1]; [3]) | Effect on urea synthesis of removing (or reducing) the component in the plasma supplementation (Rat hepatocytes [2]; [3]) | also measured
1 | [Ca+2].[Cl-].[Cl-] [calcium chloride] | – | – | Effect on albumin synthesis of removing (or reducing) the component in the plasma supplementation (Rat hepatocytes [1]): significantly less; Effect on urea synthesis of removing (or reducing) the component in the plasma supplementation (Rat hepatocytes [2]): significantly less
2 | NC(=O)CC[C@H](N)C(=O)O [glutamine] | – | – | Albumin synthesis (in words) vs plasma with BME amino acid supplementation (Rat hepatocytes [1]; day 5 of plasma exposure): significantly less albumin; Urea synthesis rate (in words) (Rat hepatocytes [2]; 10 mM as only amino acid supplementation of citrated plasma, day 5 of plasma exposure): maintained
3 | NCC(=O)O [glycine] | – | – | Albumin synthesis (in words) vs plasma with BME amino acid supplementation (Rat hepatocytes [1]; day 5 of plasma exposure): significantly less albumin; Decrease of urea synthesis rate (Rat hepatocytes [2]; 10 mM as only amino acid supplementation of citrated plasma, day 5 of plasma exposure, vs BME amino acids): 43%
4 | C[C@]12CCC(=O)C=C1CC[C@@H]1[C@@H]2[C@@H](O)C[C@@]2(C)[C@H]1CC[C@]2(O)C(=O)CO [hydrocortisone, reference compound] | significantly reduced | – | –
5 | [Cl-].[Cl-].[Mg+2] [magnesium chloride] | – | – | Effect on albumin synthesis of removing (or reducing) the component in the plasma supplementation (Rat hepatocytes [1]): significantly less; Effect on urea synthesis of removing (or reducing) the component in the plasma supplementation (Rat hepatocytes [2]): significantly less
6 | [Cl-].[K+] [potassium chloride] | no significant effect | no significant effect | –
7 | [Cl-].[Na+] [sodium chloride] | increased; also recorded: enhanced | increased; also recorded: enhanced | –
8 | glucagon [reference compound] | significantly reduced | decreased significantly | –
9 | insulin [reference compound] | significantly reduced | – | –
